From patent US11351268B2, “FGF21 C-terminal peptide optimization” (INDIANA UNIVERSITY RESEARCH AND TECHNOLOGY CORPORATION, priority 2016, dated 2022)
Non-standard residues stand in square brackets, D forms with d. Residues, ends and D or L forms follow the SMILES beside them. No end group written: not given here.

biological target: T1, Klotho β (KLB) (Homo sapiens, UniProt Q86Z14); assay: cell-based; assay type: cell-based; details: not given
T1 construct: expressed in transfected cells; host or cells: HEK 293T (ATCC), pooled Zeocin-selected cells stably expressing hKLB from pcDNA3.1(+)
T1 sequence (Q86Z14 1-1044): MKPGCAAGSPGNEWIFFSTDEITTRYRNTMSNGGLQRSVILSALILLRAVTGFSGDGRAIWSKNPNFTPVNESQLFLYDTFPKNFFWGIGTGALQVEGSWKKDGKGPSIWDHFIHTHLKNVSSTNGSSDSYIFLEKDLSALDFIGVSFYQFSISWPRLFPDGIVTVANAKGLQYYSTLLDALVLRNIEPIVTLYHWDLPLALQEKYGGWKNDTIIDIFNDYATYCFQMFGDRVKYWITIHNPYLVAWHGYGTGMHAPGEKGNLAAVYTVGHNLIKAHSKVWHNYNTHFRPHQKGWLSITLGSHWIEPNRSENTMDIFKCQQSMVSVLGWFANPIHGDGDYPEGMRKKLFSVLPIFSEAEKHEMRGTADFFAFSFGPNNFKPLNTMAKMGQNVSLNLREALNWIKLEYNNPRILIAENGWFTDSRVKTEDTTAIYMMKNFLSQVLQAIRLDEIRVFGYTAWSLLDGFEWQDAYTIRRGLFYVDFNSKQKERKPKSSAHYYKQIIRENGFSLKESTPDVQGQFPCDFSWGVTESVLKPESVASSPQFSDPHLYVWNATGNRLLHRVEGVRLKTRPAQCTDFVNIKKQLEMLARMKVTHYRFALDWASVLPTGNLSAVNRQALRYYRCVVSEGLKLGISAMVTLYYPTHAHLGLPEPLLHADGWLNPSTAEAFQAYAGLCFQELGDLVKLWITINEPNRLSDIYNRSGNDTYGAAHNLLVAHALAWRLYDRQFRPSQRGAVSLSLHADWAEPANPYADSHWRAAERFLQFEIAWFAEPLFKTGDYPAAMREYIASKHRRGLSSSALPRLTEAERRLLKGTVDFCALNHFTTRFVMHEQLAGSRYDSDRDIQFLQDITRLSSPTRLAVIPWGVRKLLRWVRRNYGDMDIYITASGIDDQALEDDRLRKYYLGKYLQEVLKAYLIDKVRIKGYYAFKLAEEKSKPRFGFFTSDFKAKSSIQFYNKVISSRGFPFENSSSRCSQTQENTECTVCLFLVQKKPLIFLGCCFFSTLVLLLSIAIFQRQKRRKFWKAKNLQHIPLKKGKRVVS
Experimental: Cells were cultured in 10% Fetal Bovine Serum containing DMEM High glucose GLUTAMAX® at 37 C, 95% humidity, 5% CO2. For generating the cell line with stable expression, human KLB gene was synthesized by Genscript and subcloned into pcDNA3.1(+) with ZEOCIN® resistance vector (INVITROGEN®) by NheI and NotI restriction enzyme sites. HEK 293T cells were obtained from ATCC and were transiently transfected at 80% confluency using Lipofectamine 3000 (Invitrogen). Selection for KLB-expressing cells was initiated 48 hours post-transfection in the growth media containing 100 μg/ml of ZEOCIN® (Gibco) and continued for 4 weeks with fresh media added every third day. Human KLB expression in pooled cells was confirmed by Western blot and a functional FGF21 MAPK phosphorylation assay.
293 HEK cells expressing hKLB were plated to 90% confluency in 96 well plates coated with poly-D-Lysine. Cells were serum starved for three hours in 0.1% BSA containing media prior to stimulation with protein and/or an antagonist peptide for ten minutes at 37° C. The cell lysate was used for the detection of phospho-Erk1/2 levels by AlphaSureFire kit using the prescribed protocol. The degree of biochemical activation was recorded and analyzed using Origin software by logistic curve fitting. Tests at each concentration were done in triplicates, and the standard deviation is as shown in the graphs. The calculation of maximal activities was done keeping the FGF21 157-181 or FGF19 169-194 peptide activity as standard. The difference between the Erk1/2 phosphorylation signal for the highest (10 μM) and the lowest (0 μM) tested dose for native peptide was considered as 100% and accordingly all the other values were assigned.

Molecule | % max activity [%]
PPDVASSDPLSMVGPSQGRSPSYAS-NH2 (C-terminus assumed) [Peptide A5, PPDVASSDPLSMVGPSQGRSPSYAS] | 102.5

same assay, conditions: 10 nM FGF21 stimulation, 293 HEK hKLB cells

Molecule | antagonism of FGF21 activity (in words)
FGF19 (amino acids 165-194): C-terminal peptide of FGF19, amino acids 165-194 (FLPMLPMVPEEPEDLRGHLESDMFSSPLET) [reference compound] | exhibit antagonism to FGF21 activity
FGF21 159-181: 23-amino acid C-terminal fragment of FGF21 (DVGSSDPLSMVGPSQGRSPSYAS; UniProt Q9NSA1 187-209, looked up, fragment) [reference compound] | weak antagonism
FGF21 160-181: C-terminal fragment of FGF21 described as 24-amino acid (VGSSDPLSMVGPSQGRSPSYAS; UniProt Q9NSA1 188-209, looked up, fragment) [reference compound] | dramatically improved its antagonistic potential
FGF21 162-181: C-terminal fragment of FGF21, residues 162-181 (SSDPLSMVGPSQGRSPSYAS) [reference compound] | non-functional
FGF21 (amino acids 153-181): C-terminal peptide of FGF21, amino acids 153-181 (LAPQPPDVGSSDPLSMVGPSQGRSPSYAS) [reference compound] | exhibit antagonism to FGF21 activity

same assay, conditions: FIG. 8A, substitutions at terminal position of FGF19 169-194 peptide

Molecule | IC50 [nM]
PLETDSMDPFGLVTGLEAVRSPSFEA-NH2 (C-terminus assumed) [FGF19 A25] | 10.5
PLETDSMDPFGLVTGLEAVRSPSFEE-NH2 (C-terminus assumed) [Peptide K194E] | 87.9
PLETDSMDPFGLVTGLEAVRSPSFEL-NH2 (C-terminus assumed) [Peptide K194L] | 17.3
PLETDSMDPFGLVTGLEAVRSPSFES-NH2 (C-terminus assumed) [Peptide K194S] | 22.3

same assay, conditions: FIG. 8B, FGF21 and FGF19 C-terminal peptides

Molecule | IC50 [nM]
PLETDSMDPFGLVTGLEAVRSPSFEA-NH2 (C-terminus assumed) [FGF19 A25] | 0.5
PLETDSMDPFGLVTGLEAVRSPSFEK-NH2 (C-terminus assumed) [FGF19 WT, reference compound] | 50

same assay, conditions: Table 1; native sequence = 100% response; read-out: % max activity

Molecule | Emax [%]
APDVGSSDPLSMVGPSQGRSPSYAS-NH2 (C-terminus assumed) [Peptide A1, APDVGSSDPLSMVGPSQGRSPSYAS] | 100
PADVGSSDPLSMVGPSQGRSPSYAS-NH2 (C-terminus assumed) [Peptide A2, PADVGSSDPLSMVGPSQGRSPSYAS] | 98.5
PPAVGSSDPLSMVGPSQGRSPSYAS-NH2 (C-terminus assumed) [Peptide A3, PPAVGSSDPLSMVGPSQGRSPSYAS] | 87.8
PPDAGSSDPLSMVGPSQGRSPSYAS-NH2 (C-terminus assumed) [Peptide A4, PPDAGSSDPLSMVGPSQGRSPSYAS] | 63.6
PPDVGASDPLSMVGPSQGRSPSYAS-NH2 (C-terminus assumed) [Peptide A6, PPDVGASDPLSMVGPSQGRSPSYAS] | 89.2
PPDVGSADPLSMVGPSQGRSPSYAS-NH2 (C-terminus assumed) [Peptide A7, PPDVGSADPLSMVGPSQGRSPSYAS] | 94.5
PPDVGSSDPASMVGPSQGRSPSYAS-NH2 (C-terminus assumed) [Peptide A10, PPDVGSSDPASMVGPSQGRSPSYAS] | 76

same assay, conditions: Table 2(A), FGF19 169-194 alanine mutants, ≥95% maximal activity

Molecule | IC50 [nM]
PLETDSMDPFGLVTGLEAVRSPSFEK-NH2 (C-terminus assumed) [FGF19 WT, reference compound] | 270 ± 90

same assay, conditions: Table 3, D-amino acid scan of FGF21 C-terminal 25mer

Molecule | IC50 [nM]
CSCC[C@H](NC(=O)[C@H](CO)NC(=O)[C@H](CC(C)C)NC(=O)[C@@H]1CCCN1C(=O)[C@H](CC(=O)O)NC(=O)[C@H](CO)NC(=O)[C@H](CO)NC(=O)CNC(=O)[C@@H](NC(=O)[C@H](CC(=O)O)NC(=O)[C@@H]1CCCN1C(=O)[C@@H]1CCCN1)C(C)C)C(=O)N[C@H](C(=O)NCC(=O)N1CCC[C@H]1C(=O)N[C@@H](CO)C(=O)N[C@@H](CCC(N)=O)C(=O)NCC(=O)N[C@@H](CCCNC(=N)N)C(=O)N[C@@H](CO)C(=O)N1CCC[C@H]1C(=O)N[C@@H](CO)C(=O)N[C@@H](Cc1ccc(O)cc1)C(=O)N[C@@H](C)C(=O)N[C@H](CO)C(N)=O)C(C)C [d25, PPDVG SSDPL SMVGP SQGRS PSYAs] (H-PPDVGSSDPLSMVGPSQGRSPSYA[dS]-NH2; N-terminus and C-terminus assumed) | 264 ± 120

same assay, conditions: Table 3, D-amino acid scan; C25 = 100

Molecule | % Activity vs C25 [%]
CSCC[C@H](NC(=O)[C@H](CO)NC(=O)[C@H](CC(C)C)NC(=O)[C@@H]1CCCN1C(=O)[C@H](CC(=O)O)NC(=O)[C@H](CO)NC(=O)[C@H](CO)NC(=O)CNC(=O)[C@@H](NC(=O)[C@H](CC(=O)O)NC(=O)[C@@H]1CCCN1C(=O)[C@@H]1CCCN1)C(C)C)C(=O)N[C@H](C(=O)NCC(=O)N1CCC[C@H]1C(=O)N[C@@H](CO)C(=O)N[C@@H](CCC(N)=O)C(=O)NCC(=O)N[C@H](CCCNC(=N)N)C(=O)N[C@@H](CO)C(=O)N1CCC[C@H]1C(=O)N[C@@H](CO)C(=O)N[C@@H](Cc1ccc(O)cc1)C(=O)N[C@@H](C)C(=O)N[C@@H](CO)C(N)=O)C(C)C [d19, PPDVG SSDPL SMVGP SQGrS PSYAS] (H-PPDVGSSDPLSMVGPSQG[dR]SPSYAS-NH2; N-terminus and C-terminus assumed) | 270.70 ± 136.83
CSCC[C@H](NC(=O)[C@H](CO)NC(=O)[C@H](CC(C)C)NC(=O)[C@@H]1CCCN1C(=O)[C@H](CC(=O)O)NC(=O)[C@H](CO)NC(=O)[C@H](CO)NC(=O)CNC(=O)[C@@H](NC(=O)[C@H](CC(=O)O)NC(=O)[C@@H]1CCCN1C(=O)[C@@H]1CCCN1)C(C)C)C(=O)N[C@H](C(=O)NCC(=O)N1CCC[C@H]1C(=O)N[C@@H](CO)C(=O)N[C@@H](CCC(N)=O)C(=O)NCC(=O)N[C@@H](CCCNC(=N)N)C(=O)N[C@@H](CO)C(=O)N1CCC[C@@H]1C(=O)N[C@@H](CO)C(=O)N[C@@H](Cc1ccc(O)cc1)C(=O)N[C@@H](C)C(=O)N[C@@H](CO)C(N)=O)C(C)C [d21, PPDVG SSDPL SMVGP SQGRS pSYAS] (H-PPDVGSSDPLSMVGPSQGRS[dP]SYAS-NH2; N-terminus and C-terminus assumed) | 3.80 ± 0.87

same assay, conditions: Table 5, FGF19/FGF21 chimeric peptides

Molecule | IC50 [nM]
PLETDSMDPFGLVGPSQGRSPSFEA-NH2 (C-terminus assumed) [Peptide 0430] | 15.9 ± 1.1
PLETDSMDPFGLVTGLEAVRSPSFEA-NH2 (C-terminus assumed) [FGF19 A25] | 19.1 ± 1.5
PLETDSSDPLSMVGPSQGRSPSFEA-NH2 (C-terminus assumed) [Peptide 0432] | 120 ± 6.3
PLETDSSDPLSMVTGLEAVRSPSYAA-NH2 (C-terminus assumed) [Peptide 0434] | 264 ± 78.8
PPDVGSMDPFGLVGPSQGRSPSFEA-NH2 (C-terminus assumed) [Peptide 0431] | 4.1 ± 0.1
PPDVGSMDPFGLVTGLEAVRSPSYAA-NH2 (C-terminus assumed) [Peptide 0433] | 10.7 ± 0.7

same assay, conditions: Table 6, derivatives of SEQ ID NO: 180

Molecule | IC50 [nM]
PPDVFSMDPFGLVGPSQGRSPSFEA-NH2 (C-terminus assumed) [Peptide 0480] | 2.6 ± 0.5
PPDVGSMDPFGLVGPSQGRSPSFEA-NH2 (C-terminus assumed) [Peptide 0431] | 7.1 ± 3
PPDVGSMDPFGLVGRSQGRSPSFEA-NH2 (C-terminus assumed) [Peptide 0470] | 4.9 ± 1.1
PPDVGSSDPFGLVGPSQGRSPSFEA-NH2 (C-terminus assumed) [Peptide 0486] | 4.7 ± 1.6

same assay, conditions: relative to native C-terminal peptide

Molecule | fold increase of antagonistic potency over the native peptide [fold]
CSCC[C@H](NC(=O)[C@H](CO)NC(=O)[C@H](CC(C)C)NC(=O)[C@@H]1CCCN1C(=O)[C@H](CC(=O)O)NC(=O)[C@H](CO)NC(=O)[C@H](CO)NC(=O)CNC(=O)[C@@H](NC(=O)[C@H](CC(=O)O)NC(=O)[C@@H]1CCCN1C(=O)[C@@H]1CCCN1)C(C)C)C(=O)N[C@H](C(=O)NCC(=O)N1CCC[C@H]1C(=O)N[C@@H](CO)C(=O)N[C@@H](CCC(N)=O)C(=O)NCC(=O)N[C@H](CCCNC(=N)N)C(=O)N[C@@H](CO)C(=O)N1CCC[C@H]1C(=O)N[C@@H](CO)C(=O)N[C@@H](Cc1ccc(O)cc1)C(=O)N[C@@H](C)C(=O)N[C@@H](CO)C(N)=O)C(C)C [d19, PPDVG SSDPL SMVGP SQGrS PSYAS] (H-PPDVGSSDPLSMVGPSQG[dR]SPSYAS-NH2; N-terminus and C-terminus assumed) | 2
